Experimental data reported in patent US7638556B2, “Freeze-dried product of N-[o-(p-pivaloyloxy benzenesulfonylamino)benzoyl]glycine monosodium salt tetra-hydrate and a process for the manufacture thereof” (Ono Pharmaceutical Co., Ltd., priority 2000, dated 2009).
Read-outs that look alike come from different tables or passages of the source.

What was measured:
[1] = solubility of compound (I) in water or ethanol; format: physicochemical
Description: However, compound (I) is hardly soluble in water or ethanol; the solubility is 0.4 mg/ml in water, and 6.0 mg/ml in ethanol. Therefore, by normal solvents it is difficult to prepare a clear solution for the process of a high-dosage freeze-dried product.
Compound (I) has, as shown above, a very low solubility; 0.4 mg/ml in water, 6.0 mg/ml in ethanol. In order to obtain a freeze-dried product to prepare a high-dosage product of this compound, it is necessary to improve the solubility.

[2] = prior freeze-dried product method using sodium carbonate and water; cited from earlier work
[3] = solubility in mixed solvent of ethanol and water by titration until completely dissolved (Example 1); format: physicochemical; conditions: thermodynamic from solid
Description: By the following method, the concentration of compound (I) was measured when compound (I) was completely dissolved in various ratios of mixed solvent comprising water and ethanol.
Above mixed solvent was titrated with various added volume for compound (I) and the mixture was vigorously stirred and was left alone for several minutes.
The above operation was done repeatedly until confirming that the solute was completely dissolved by visual recognition.
Solubility A was given by dividing the amount of solute (mg) with the volume of added solvent (ml) when the solute was completely dissolved; and solubility B was given by dividing the amount of solute with the volume of added solvent before the solute was completely dissolved (mg).
It is judged that the solubility of compound (I) to mixed solvent of ethanol and water is between solubility A and solubility B.

elastase = target: T1, elastase (Homo sapiens, UniProt P08246); conditions: cited from earlier work
T1 sequence (P08246 30-267): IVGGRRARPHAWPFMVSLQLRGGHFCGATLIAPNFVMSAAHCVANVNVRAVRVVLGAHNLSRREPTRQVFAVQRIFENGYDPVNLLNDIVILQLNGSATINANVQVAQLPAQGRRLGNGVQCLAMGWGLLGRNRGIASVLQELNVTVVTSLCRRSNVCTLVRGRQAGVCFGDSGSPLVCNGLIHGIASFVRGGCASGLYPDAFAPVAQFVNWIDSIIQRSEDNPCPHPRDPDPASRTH

solubility ([1]; in water): 0.4 mg/mL
solubility ([1]; organic solvent or mixture, in ethanol): 6 mg/mL
solubility ([3]; aqueous with cosolvent or surfactant or cyclodextrin, ratio of ethanol 10 vol %, read-out: solubility A): 0.83 mg/mL
solubility ([3]; aqueous with cosolvent or surfactant or cyclodextrin, ratio of ethanol 10 vol %, read-out: solubility B): 0.91 mg/mL
solubility ([3]; aqueous with cosolvent or surfactant or cyclodextrin, ratio of ethanol 15 vol %, read-out: solubility A): 0.91 mg/mL
solubility ([3]; aqueous with cosolvent or surfactant or cyclodextrin, ratio of ethanol 15 vol %, read-out: solubility B): 1 mg/mL
solubility ([3]; aqueous with cosolvent or surfactant or cyclodextrin, ratio of ethanol 20 vol %, read-out: solubility A): 1.43 mg/mL
solubility ([3]; aqueous with cosolvent or surfactant or cyclodextrin, ratio of ethanol 20 vol %, read-out: solubility B): 1.67 mg/mL
solubility ([3]; aqueous with cosolvent or surfactant or cyclodextrin, ratio of ethanol 25 vol %, read-out: solubility A): 1.67 mg/mL
solubility ([3]; aqueous with cosolvent or surfactant or cyclodextrin, ratio of ethanol 25 vol %, read-out: solubility B): 2 mg/mL
solubility ([3]; aqueous with cosolvent or surfactant or cyclodextrin, ratio of ethanol 30 vol %, read-out: solubility A): 100 mg/mL
solubility ([3]; aqueous with cosolvent or surfactant or cyclodextrin, ratio of ethanol 30 vol %, read-out: solubility B): 125 mg/mL
solubility ([3]; aqueous with cosolvent or surfactant or cyclodextrin, ratio of ethanol 40 vol %, read-out: solubility A): 125 mg/mL
solubility ([3]; aqueous with cosolvent or surfactant or cyclodextrin, ratio of ethanol 40 vol %, read-out: solubility B): 167 mg/mL
solubility ([3]; aqueous with cosolvent or surfactant or cyclodextrin, ratio of ethanol 50 vol %, read-out: solubility A): 167 mg/mL
solubility ([3]; aqueous with cosolvent or surfactant or cyclodextrin, ratio of ethanol 50 vol %, read-out: solubility B): 250 mg/mL
solubility ([3]; aqueous with cosolvent or surfactant or cyclodextrin, ratio of ethanol 60 vol %, read-out: solubility A): 167 mg/mL
solubility ([3]; aqueous with cosolvent or surfactant or cyclodextrin, ratio of ethanol 60 vol %, read-out: solubility B): 250 mg/mL
solubility ([3]; aqueous with cosolvent or surfactant or cyclodextrin, ratio of ethanol 70 vol %, read-out: solubility A): 125 mg/mL
solubility ([3]; aqueous with cosolvent or surfactant or cyclodextrin, ratio of ethanol 70 vol %, read-out: solubility B): 167 mg/mL
solubility ([3]; aqueous with cosolvent or surfactant or cyclodextrin, ratio of ethanol 80 vol %, read-out: solubility A): 125 mg/mL
solubility ([3]; aqueous with cosolvent or surfactant or cyclodextrin, ratio of ethanol 80 vol %, read-out: solubility B): 167 mg/mL
solubility ([3]; aqueous with cosolvent or surfactant or cyclodextrin, ratio of ethanol 90 vol %, read-out: solubility A): 50 mg/mL
solubility ([3]; organic solvent or mixture, mixed solvent ethanol/water=3.0/7.0~8.0/2.0 (v/v), read-out: solubility): ≥ 80 mg/mL
solubility ([3]; organic solvent or mixture, ratio of ethanol 90 vol %, read-out: solubility B): 55.6 mg/mL
solubility ([3]; organic solvent or mixture, ratio of ethanol 100 vol %, read-out: solubility A): 5 mg/mL
solubility ([3]; organic solvent or mixture, ratio of ethanol 100 vol %, read-out: solubility B): 5.56 mg/mL
solubility ([3]; water, ratio of ethanol 0 vol %, read-out: solubility A): 0.22 mg/mL
solubility ([3]; water, ratio of ethanol 0 vol %, read-out: solubility B): 0.23 mg/mL
Structure (SMILES): CC(C)(C)C(=O)Oc1ccc(S(=O)(=O)Nc2ccccc2C(=O)NCC(=O)[O-])cc1.[Na+] [compound (I), N-[o-(p-pivaloyloxybenzenesulfonylamino)benzoyl]glycine monosodium salt tetra-hydrate]
solubility [2]: < 80 mg/mL
inhibitory activity against elastase (elastase): inhibitory activity against elastase
